Test systems include RXF 393; MDA-MB-231; SR; CAKI-1; MDA-MB-435; NCI-H460; KM12; RPMI-8226; M14; OVCAR-5; DU-145; HCT-15; BT-549; MDA-N; NCI-H522; COLO 205; U-251; EKVX; SN12C; HCC 2998.
Holding throughout (experiment): DTP human tumour cell line panel, 48 h

The structures appear in SMILES notation.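 Dose response: 5 concentrations. Exposure: 48 h. Format: 96-well plates. Endpoint: linear interpolation; highest concentration if not reached. GI50 marks 50% less growth.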 The source made the active and inactive calls. Cut-off read from the data, not from the text of the source: active = GI50 up to about 1.1 µM and inactive = higher.

For `CN(C)CCCNc1c2c(=O)n(C)c(=O)nc-2n(C)c2ccccc12`, the GI50 in the test with RXF 393 is 7.8 µM (inactive); with MDA-MB-231, 6 µM (inactive); in the test with SR, 3 µM (inactive); with CAKI-1 it was 7.13 µM (inactive); in the test on MDA-MB-435 it was 3.94 µM (inactive); with NCI-H460, 2.85 µM (inactive). Further, the GI50 in the test with KM12 was 3.58 µM (inactive); in the test on RPMI-8226, 7.1 µM (inactive); in the test on M14, 5.02 µM (inactive); with OVCAR-5 it was 6.1 µM (inactive); in the test with DU-145 it was 6.41 µM (inactive); in the test with HCT-15, 20.1 µM. In addition, the GI50 in the test on BT-549 was 12.7 µM (inactive); in the test on MDA-N, 4.2 µM (inactive); in the test with NCI-H522, 2.45 µM (inactive); in the test on COLO 205 it was 3.21 µM (inactive); with U-251, 3.26 µM (inactive); in the test with EKVX, 6.43 µM (inactive). For the same compound, in the test on SN12C, the GI50 was 4.43 µM (inactive).
For the compound `CCOC(=O)C(O)(C(=O)OCC)c1cc(C(C)(C)C)c(O)c(C(C)(C)C)c1`, the GI50 with RXF 393 was 21.1 µM (inactive); in the test on MDA-MB-231, 53 µM (inactive); with SR, 33.6 µM (inactive); in the test with CAKI-1, 41.2 µM (inactive); in the test on MDA-MB-435, 37.2 µM (inactive); in the test on KM12, 34.8 µM (inactive). Besides, the GI50 in the test with RPMI-8226 is 26.1 µM (inactive); in the test with M14, 39 µM (inactive); in the test on OVCAR-5 it was 41.2 µM (inactive); with DU-145 it was 92 µM (inactive); in the test with HCT-15, 42 µM; with BT-549, 39.2 µM (inactive). Further, the GI50 was 36.4 µM (inactive) in the test on MDA-N; 36.9 µM (inactive) in the test with NCI-H522; 36.1 µM (inactive) in the test on COLO 205; 41 µM (inactive) with U-251; 48.4 µM (inactive) in the test on EKVX; 43.4 µM (inactive) in the test with SN12C.
Consider `C[C@@H]1CC[C@@]2(C)C(C(=O)O)=CCCC2[C@@]1(C)CC(=O)c1ccoc1` (stereo partly specified), for which the GI50 in the test on RXF 393, in the test on MDA-MB-231, in the test with SR, with CAKI-1, in the test with MDA-MB-435 and in the test with NCI-H460 was > 25 µM (inactive) throughout. The GI50 was > 25 µM (inactive) with KM12; > 25 µM (inactive) with RPMI-8226; > 25 µM (inactive) in the test with M14; > 25 µM (inactive) in the test on OVCAR-5; > 25 µM (inactive) in the test on DU-145; above 25 µM in the test with HCT-15. Also, the GI50 with BT-549, in the test on MDA-N, in the test on NCI-H522, with COLO 205, in the test with U-251 and in the test with EKVX was > 25 µM (inactive) each time. In the test with SN12C, the GI50 is > 25 µM (inactive).
For `COc1ccc(C2SC(=N)Nc3c2c(C)nn3C(=O)Cc2ccccc2)cc1` (stereo unspecified), the GI50 with MDA-MB-231, in the test on SR, in the test with CAKI-1, in the test with MDA-MB-435, in the test on NCI-H460 and with KM12 was > 100 µM (inactive) in each case. Moreover, the GI50 in the test with RPMI-8226 was > 100 µM (inactive); with HCC 2998, > 100 µM (inactive); in the test with M14, > 100 µM (inactive); in the test on DU-145 it was > 100 µM (inactive); in the test with HCT-15, above 100 µM; in the test with BT-549, > 100 µM (inactive). In addition, the GI50 in the test with MDA-N, with NCI-H522, with COLO 205, with EKVX and with SN12C was > 100 µM (inactive) each time.
In the case of `CCn1ncc2c(=O)n3ncn(-c4ccc(Br)cc4)c3nc21`, the GI50 was > 100 µM (inactive) with RXF 393; > 100 µM (inactive) with MDA-MB-231; 58.1 µM (inactive) in the test with SR; > 100 µM (inactive) in the test on MDA-MB-435; > 100 µM (inactive) with KM12; > 100 µM (inactive) with RPMI-8226. Further, the GI50 with HCC 2998 is > 100 µM (inactive); in the test on M14 it was > 100 µM (inactive); in the test on OVCAR-5, > 100 µM (inactive); with DU-145, > 100 µM (inactive); in the test with HCT-15 it was above 100 µM; in the test with BT-549 it was > 100 µM (inactive). The GI50 in the test on MDA-N, with NCI-H522, in the test with COLO 205, in the test with U-251, in the test on EKVX and with SN12C was > 100 µM (inactive) each time.
As to `CC1=C2C(=O)O[C@@H](c3ccoc3)[C@]2(C)CCC1=O` [FRAXINELLONONE], the GI50 in the test with MDA-MB-231, with SR, in the test with CAKI-1, in the test on MDA-MB-435, in the test on NCI-H460 and with KM12 was > 100 µM (inactive) in each case. Also, the GI50 in the test on RPMI-8226 is > 100 µM (inactive); in the test on HCC 2998 it was > 100 µM (inactive); with M14 it was > 100 µM (inactive); in the test on OVCAR-5, > 100 µM (inactive); in the test with DU-145, > 100 µM (inactive); with HCT-15, above 100 µM. The GI50 in the test with BT-549, in the test with MDA-N, in the test on COLO 205, with U-251, in the test on EKVX and with SN12C was > 100 µM (inactive) each time.
Consider `Oc1ccc(Cl)cc1Sc1cc(Cl)ccc1O` [FENTICLOR], for which the GI50 was 14.2 µM (inactive) in the test with RXF 393; 15 µM (inactive) with MDA-MB-231; 17.1 µM (inactive) in the test with SR; 17.9 µM (inactive) in the test with CAKI-1; 10.9 µM (inactive) with MDA-MB-435; 10.7 µM (inactive) in the test on NCI-H460. For the same compound, the GI50 with KM12 is 17.5 µM (inactive); in the test with RPMI-8226, 3.32 µM (inactive); in the test with M14, 12.9 µM (inactive); in the test on OVCAR-5, 13.4 µM (inactive); in the test on DU-145, 14.2 µM (inactive); in the test with HCT-15 it was 8.65 µM. The GI50 with BT-549 was 12.9 µM (inactive); in the test with MDA-N, 7.24 µM (inactive); in the test with NCI-H522, 3.1 µM (inactive); with COLO 205, 20.7 µM (inactive); in the test on U-251, 8.53 µM (inactive); with EKVX, 15.5 µM (inactive). The GI50 in the test with SN12C was 10.5 µM (inactive).
With `CC(=O)Nc1ccc(NC(=O)CC(=O)Nc2ccc(NC(C)=O)cc2)cc1`, the GI50 in the test on MDA-MB-231, in the test on SR, in the test on CAKI-1, in the test with MDA-MB-435, in the test with NCI-H460 and in the test with KM12 was > 100 µM (inactive) in each case. Besides, the GI50 was > 100 µM (inactive) with RPMI-8226; 19.4 µM (inactive) in the test with HCC 2998; > 100 µM (inactive) in the test with M14; > 100 µM (inactive) in the test on DU-145; 25.8 µM with HCT-15; > 100 µM (inactive) in the test with BT-549. The GI50 in the test with MDA-N is > 100 µM (inactive); in the test on NCI-H522, > 100 µM (inactive); with COLO 205 it was > 100 µM (inactive); with U-251, 32.1 µM (inactive); with EKVX, > 100 µM (inactive); in the test on SN12C, > 100 µM (inactive).
`CCCCCC(O)[C@H]1C(=O)C[C@@H](O[Si](C)(C)C(C)(C)C)[C@@H]1/C=C/CCOCc1ccccc1` (stereo partly specified): the GI50 in the test on RXF 393 is 12.2 µM (inactive); in the test on MDA-MB-231, 29.2 µM (inactive); with CAKI-1, 8.47 µM (inactive); with MDA-MB-435, 7.31 µM (inactive); in the test on NCI-H460, 16.9 µM (inactive); with KM12, 5.41 µM (inactive). Moreover, the GI50 in the test with RPMI-8226 is 17 µM (inactive); in the test on HCC 2998 it was 14.9 µM (inactive); in the test with M14, 12.6 µM (inactive); with OVCAR-5 it was 17.9 µM (inactive); in the test with DU-145, 20 µM (inactive); in the test with HCT-15 it was 10.6 µM. Also, the GI50 with BT-549 is 8.07 µM (inactive); in the test on MDA-N it was 9.51 µM (inactive); with NCI-H522, 3.88 µM (inactive); with COLO 205 it was 16 µM (inactive); in the test on U-251, 12.1 µM (inactive); in the test with EKVX it was 17.4 µM (inactive). Also, the GI50 with SN12C was 19.1 µM (inactive).
With `Cc1ccc(C2(c3ccc(C)c(O)c3C)CCN(C)CC2)c(C)c1O`, the GI50 in the test with RXF 393 is 78.5 µM (inactive); with MDA-MB-231, 34.8 µM (inactive); in the test with SR, 49.8 µM (inactive); in the test with CAKI-1 it was > 100 µM (inactive); in the test on MDA-MB-435, 92.9 µM (inactive); with NCI-H460, 15.7 µM (inactive). Further, the GI50 in the test on KM12 was 46.5 µM (inactive); in the test with RPMI-8226 it was > 100 µM (inactive); with M14, 45.8 µM (inactive); in the test with OVCAR-5 it was > 100 µM (inactive); in the test with DU-145, > 100 µM (inactive); in the test on HCT-15, above 100 µM. The GI50 is > 100 µM (inactive) with BT-549; 58.5 µM (inactive) in the test on MDA-N; > 100 µM (inactive) with NCI-H522; 39.4 µM (inactive) with U-251; 44.4 µM (inactive) with EKVX; 37.2 µM (inactive) with SN12C.
`CC1=N[C@](C)(C2CC3C=CC2C3=O)COC1=O` (stereo partly specified): the GI50 with RXF 393, in the test with MDA-MB-231, in the test with SR, with CAKI-1, with MDA-MB-435 and in the test with NCI-H460 was > 100 µM (inactive) throughout. In addition, the GI50 with KM12, in the test with HCC 2998, in the test with M14, in the test with OVCAR-5, in the test on DU-145 and in the test with BT-549 was > 100 µM (inactive) each time. Besides, the GI50 in the test with MDA-N, with NCI-H522, in the test on COLO 205, in the test with U-251, in the test on EKVX and with SN12C was > 100 µM (inactive) throughout.

Values taken from ChEMBL document CHEMBL1201862, “PubChem BioAssay data set” (2004).
